Test [1] addresses T1, rat TRPV1 heterologously expressed in Chinese hamster ovary (CHO) cells (Rattus norvegicus, UniProt O35433). The class given is binding.
Test [2] addresses T1, rat TRPV1 heterologously expressed in Chinese hamster ovary (CHO) cells. The format is cell-based.

Marks after values point to notes of the source that are not given here.

T1 sequence (O35433 whole entry): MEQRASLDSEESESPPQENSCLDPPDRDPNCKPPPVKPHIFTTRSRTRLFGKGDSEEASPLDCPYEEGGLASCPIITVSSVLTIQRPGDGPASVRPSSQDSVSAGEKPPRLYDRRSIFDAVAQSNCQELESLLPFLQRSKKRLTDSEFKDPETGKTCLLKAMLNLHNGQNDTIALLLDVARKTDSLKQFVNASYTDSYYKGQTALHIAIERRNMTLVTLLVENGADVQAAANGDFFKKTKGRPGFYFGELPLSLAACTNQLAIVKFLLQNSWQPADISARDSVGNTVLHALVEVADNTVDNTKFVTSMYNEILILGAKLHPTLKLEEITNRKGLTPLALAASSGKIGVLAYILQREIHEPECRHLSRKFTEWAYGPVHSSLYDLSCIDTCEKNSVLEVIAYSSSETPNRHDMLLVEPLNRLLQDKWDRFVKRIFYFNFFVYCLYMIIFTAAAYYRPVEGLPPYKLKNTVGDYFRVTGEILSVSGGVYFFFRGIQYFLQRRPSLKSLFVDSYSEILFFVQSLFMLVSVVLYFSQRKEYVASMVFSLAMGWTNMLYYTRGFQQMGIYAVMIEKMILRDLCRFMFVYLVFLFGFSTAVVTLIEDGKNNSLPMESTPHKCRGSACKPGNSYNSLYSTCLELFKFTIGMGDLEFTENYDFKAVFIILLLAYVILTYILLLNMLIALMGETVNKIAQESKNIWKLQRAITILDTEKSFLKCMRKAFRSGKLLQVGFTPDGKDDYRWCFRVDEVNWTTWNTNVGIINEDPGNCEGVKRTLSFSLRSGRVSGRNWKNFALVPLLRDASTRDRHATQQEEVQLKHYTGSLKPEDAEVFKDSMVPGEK

In the case of `COc1cc(C(C)C(=O)NCc2ccc(C(C)(C)C)cc2)ccc1O` (stereo not shown) [8a], the “enhancement in binding affinity compared to non-methylated parent” value in test [1] is given as 2 fold. The “enhancement in agonism compared to non-methylated parent” value in test [2] is 3 fold.
For `CC(C(=O)NCc1ccc(C(C)(C)C)cc1)c1ccc(O)c(F)c1` (stereo not shown) [8b], the “enhancement in binding affinity compared to non-methylated parent” value in test [1] was “ca. 4.5 fold”.
Consider `CC(C(=O)NCc1ccc(C(C)(C)C)cc1)c1ccc(O)c(Cl)c1` (stereo not shown) [8c], for which the “enhancement in binding affinity compared to non-methylated parent” value in test [1] was approximately 4 fold. The “fractional calcium uptake compared with that induced by 300 nM capsaicin” value in test [2] is given as “(77%) ^a”.
For `CC(C)(C)c1ccc(CNC(=O)Cc2ccc(OCCN)c(F)c2)cc1` [10b], the “fractional calcium uptake compared with that induced by 300 nM capsaicin” value in test [2] is listed as “(63%) ^a”.
`CC(C)(C)c1ccc(CNC(=O)Cc2ccc(OCCN)c(Cl)c2)cc1` [10c]: in test [2], the “fractional calcium uptake compared with that induced by 300 nM capsaicin” value is listed as “(36%) ^a”.
Same read-out and setting: the same measure for `CC(C(=O)NCc1ccc(C(C)(C)C)cc1)c1ccc(OCCN)c(F)c1` (stereo not shown) [14b]: “(91%) ^a”; for `CC(C(=O)NCc1ccc(C(C)(C)C)cc1)c1ccc(OCCN)c(Cl)c1` (stereo not shown) [14c]: “(75%) ^a”.
Regarding `CCCCCCCCCNC(=O)C(C)c1ccc(O)c(OC)c1` (stereo not shown) [compound 19], the “enhancement in binding affinity compared to non-methylated parent” value in test [1] is recorded as 1.5–2 fold. Further, the “enhancement in agonism compared to non-methylated parent” value in test [2] was 1.5–2 fold.
For `COc1cc(C(C)C(=O)NCCCc2ccc(C)c(C)c2)ccc1O` (stereo not shown) [compound 20], in test [1], the “enhancement in binding affinity compared to non-methylated parent” value is 1.5–2 fold. The “enhancement in agonism compared to non-methylated parent” value in test [2] is recorded as 1.5–2 fold.
As to `COc1cc(C(C)C(=O)NCCCc2ccc(C)c(C)c2)ccc1OCCN` (stereo not shown) [compound 22], the “increase in receptor activity compared to DA-5018” value in test [1] is “ca. 2 fold”.
Turning to `COc1cc(C(C)NC(=S)NCc2ccc(C(C)(C)C)cc2)ccc1O` (stereo not shown) [compound 32], the “reduction (loss) in binding affinity compared to non-methylated parent” value in test [1] is on record as 3 fold.
Consider `COc1cc(C(C)NC(=S)NCc2ccc(C(C)(C)C)cc2)ccc1OCCN` (stereo not shown) [compound 36], for which, in test [1], the “reduction (loss) in binding affinity compared to non-methylated parent” value is 17 fold.
